One experiment concerns HCT-116 cells. The experiment is described as follows: Cell viability (MTT) assay, HCT-116. To be noted: Homo sapiens, HCT-116, 48 h, read-out: Antiproliferative IC50, HCT-116.
The next experiment concerns MCF-7 cells. The experiment is described as follows: Cell viability (MTT) assay, MCF-7. The conditions noted are these: Homo sapiens, MCF7, 48 h, read-out: Antiproliferative IC50, MCF-7.
Another experiment relates to SW480 cells. The experiment is described as follows: Cell viability (MTT) assay, SW480. To be noted: Homo sapiens, SW480, 48 h, read-out: Antiproliferative IC50, SW480.
The next experiment deals with MDA-MB-231 cells. Put plainly: Cell viability (MTT) assay, MDA-MB-231. To be noted: Homo sapiens, MDA-MB-231, 48 h, read-out: Antiproliferative IC50, MDA-MB-231.
Experiment [1] deals with T1, HDAC6 human recombinant enzyme (Homo sapiens, UniProt Q9UBN7).
T1 sequence (Q9UBN7 1-1215): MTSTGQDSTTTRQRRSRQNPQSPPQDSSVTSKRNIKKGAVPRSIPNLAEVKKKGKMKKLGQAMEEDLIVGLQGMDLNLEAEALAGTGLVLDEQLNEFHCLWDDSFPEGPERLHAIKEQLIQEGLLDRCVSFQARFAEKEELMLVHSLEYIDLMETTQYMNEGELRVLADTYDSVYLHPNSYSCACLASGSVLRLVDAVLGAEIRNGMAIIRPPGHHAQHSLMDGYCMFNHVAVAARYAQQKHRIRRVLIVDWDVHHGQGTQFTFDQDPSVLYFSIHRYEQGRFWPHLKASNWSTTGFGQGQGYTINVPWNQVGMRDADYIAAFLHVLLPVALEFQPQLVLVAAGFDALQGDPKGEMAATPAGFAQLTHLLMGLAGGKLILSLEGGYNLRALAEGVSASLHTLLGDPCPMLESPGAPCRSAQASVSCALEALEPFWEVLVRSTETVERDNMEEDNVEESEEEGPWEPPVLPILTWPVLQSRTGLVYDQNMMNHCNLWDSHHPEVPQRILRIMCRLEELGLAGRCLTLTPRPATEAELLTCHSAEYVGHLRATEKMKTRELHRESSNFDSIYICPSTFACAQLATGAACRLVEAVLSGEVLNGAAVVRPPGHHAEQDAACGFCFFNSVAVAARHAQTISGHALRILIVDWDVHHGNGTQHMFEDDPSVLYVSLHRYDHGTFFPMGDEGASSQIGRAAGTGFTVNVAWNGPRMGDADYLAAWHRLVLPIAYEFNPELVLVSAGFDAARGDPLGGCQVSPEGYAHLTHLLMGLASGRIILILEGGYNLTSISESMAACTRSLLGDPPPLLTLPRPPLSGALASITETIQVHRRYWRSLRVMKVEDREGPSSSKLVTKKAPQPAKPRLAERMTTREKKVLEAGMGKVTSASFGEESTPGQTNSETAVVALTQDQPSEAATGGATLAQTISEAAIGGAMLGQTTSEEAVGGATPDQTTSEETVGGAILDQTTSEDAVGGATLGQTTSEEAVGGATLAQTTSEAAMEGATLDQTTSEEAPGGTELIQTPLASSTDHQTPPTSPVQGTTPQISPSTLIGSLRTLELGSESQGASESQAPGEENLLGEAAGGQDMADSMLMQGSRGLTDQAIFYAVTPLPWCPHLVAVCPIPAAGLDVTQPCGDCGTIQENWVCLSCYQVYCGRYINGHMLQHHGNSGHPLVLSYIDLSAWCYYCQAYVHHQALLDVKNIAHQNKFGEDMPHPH
The experiment is described as follows: HDAC6 enzyme inhibitory activity assay. Format: biochemical. To be noted: read-out: HDAC6 Inhibition Rate at 1 μM. The procedure:
Section S1. Biological assays
Section S 1.1. HDAC6 enzyme inhibitory activity assay
Preparation of Master Mix. Trichostatin A in DMSO, Fluorogenic HDAC substrate 3, and HDAC6 human recombinant enzyme were diluted to 20 μM, 200 μM, and 7 ng/uL, respectively, using HDAC Assay Buffer.BSA was dissolved in 1 mL of distilled water to make a BSA solution at a concentration of 1 mg/mL. A certain amount of Fluorogenic HDAC substrate 3, BSA and HDAC Assay Buffer were mixed well to make a master mix, and 40 μL of the master mix was added to each well of a 96-well plate. In the drug administration group, 5 μL of Trichostatin A in DMSO and HDAC6 human recombinant enzyme were added to each well. 5 μL of HDAC Assay Buffer and HDAC6 human recombinant enzyme were added to each well of the blank group, and incubated for 30 min at 37 °C. Finally, 50 μL of undiluted HDAC substrate 3, BSA and HDAC Assay Buffer were added to each well. 50 μL of 2x HDAC Developer was added to each well and incubated at room temperature for 15 min. The samples were read in an enzyme marker with an excitation wavelength in the range of 350-380 nm and an emission light in the range of 440-460 nm.
The values of fluorescence intensities were read and the inhibition rate and IC50 were calculated. […]

Another experiment addresses T2, rhIDO1 (Homo sapiens, UniProt P14902).
T2 construct: purchased
The experiment is described as follows: IDO1 inhibition assay. Format: biochemical. The conditions noted are these: means ± S.D. of three independent experiments. The method, then: Section S1. Biological assays […]
Section S 1.2 IDO1 inhibition assays
IDO1 inhibition assays were carried out according to the manufacturers’ procedures, as described previously. The standard assay mixture (100 μL) contained 50 mM of potassium phosphate buffer (pH = 6.5), 10 mM ascorbate, 10 μM methylene blue, 100 μg/mL catalase, 1 mM L-tryptophan and 10 μg/mL of rhIDO1. The plate was incubated at 37 °C in a dark environment, and reactions were terminated after 60 min by the addition of 50 μL of fluorogenic developer solution and further incubated at 45 °C in dark for 3 h. Then, the plate was allowed to cool to room temperature for at least 1 h. After centrifugation at 1500g for 5 min at 20 °C, the fluorescence […]
M1000 Pro, Tecan US, Morrisville, NC) in an end-point mode. […]

A value given as a limit tells only on which side of the number the result lay.

T2 sequence (P14902 whole entry): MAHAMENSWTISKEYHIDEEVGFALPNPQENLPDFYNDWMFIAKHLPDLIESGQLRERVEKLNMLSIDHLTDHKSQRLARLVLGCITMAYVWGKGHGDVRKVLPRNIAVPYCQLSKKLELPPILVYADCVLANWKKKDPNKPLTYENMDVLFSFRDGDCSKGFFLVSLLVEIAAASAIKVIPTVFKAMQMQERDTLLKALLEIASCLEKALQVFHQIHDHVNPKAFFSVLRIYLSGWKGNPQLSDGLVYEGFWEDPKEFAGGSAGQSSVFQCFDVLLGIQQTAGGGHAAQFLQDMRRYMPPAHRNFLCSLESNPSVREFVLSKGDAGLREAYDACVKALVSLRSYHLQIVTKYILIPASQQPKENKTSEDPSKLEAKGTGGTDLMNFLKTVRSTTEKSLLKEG
Protocol for HCT-116 cells: Section S 1.3 Cell viability assays
(§1) Cell Bank at the Chinese Academy of Sciences.
(§2) DMEM and FBS were obtained from Gibco-Thermo (BRL Co. Ltd., USA).
(§3) another 48 h. The cells were stained with 10 μl of MTT at incubator for approximately 4 h. The medium was discarded and replaced by 100 mL DMSO. The O.D. value was read at 570/630 nm with a spectrophotometer.
Protocol for MCF-7 cells: Section S 1.3 Cell viability assays
as §1, §2, §3
Protocol for MDA-MB-231 cells: Section S 1.3 Cell viability assays
as §1, §2, §3
Protocol for SW480 cells: Section S 1.3 Cell viability assays
as §1, §2, §3

Usually IC50 stands for the midpoint of a concentration-inhibition curve. Turning to `NS(=O)(=O)NCCNc1nonc1C(=NO)Nc1ccc(F)c(Br)c1` [Epacadostat, reference compound], the IC50 in the experiment with HCT-116 cells, in the experiment with MCF-7 cells, in the experiment with SW480 cells and with MDA-MB-231 cells was greater than 80000 nM in each case.

For orientation: inhibition means the share of the control response that was lost under treatment. `O=C(CCCNc1ccc(NC(=O)c2cnc3scc(-c4ccc(Br)cc4)n23)cc1)NO` [Compound 10b, 3-(4-Bromophenyl)-N-{4-[(4-(hydroxyamino)-4-oxobutyl)amino)phenyl}imidazo[2,1-b]thiazole-5-carboxamide]: the inhibition at 1 µM in experiment [1] amounted to 25.2%. In addition, on rhIDO1, the IC50 was determined as 1060 ± 20 nM.

Take `Cc1ccc(-c2csc3ncc(C(=O)Nc4ccc(NCCCCCC(=O)NO)cc4)n23)cc1` [Compound 10j, N-{4-[(6-(hydroxyamino)-6-oxohexyl)amino]phenyl}-3-(p-tolyl)imidazo[2,1-b]thiazole-5-carboxamide]: the IC50 was greater than 80000 nM in the experiment on HCT-116 cells; greater than 80000 nM in the experiment on MCF-7 cells; greater than 80000 nM with SW480 cells; greater than 80000 nM with MDA-MB-231 cells; 380 ± 50 nM against rhIDO1. In experiment [1], the inhibition at 1 µM amounted to 40.2%.

In the case of `Cc1ccc(-c2csc3ncc(C(=O)Nc4ccc(NCCC(=O)NO)cc4)n23)cc1` [Compound 10g, N-{4-[(3-(hydroxyamino)-3-oxopropyl)amino]phenyl}-3-(p-tolyl)imidazo[2,1-b]thiazole-5-carboxamide], the inhibition at 1 µM in experiment [1] came out at 31.2%. The molecule also showed an IC50 at rhIDO1 of 2070 ± 290 nM.

Consider `O=C(CCCCNc1ccc(NC(=O)c2cnc3scc(-c4ccc(Br)cc4)n23)cc1)NO` [Compound 10c, 3-(4-Bromophenyl)-N-{4-[(5-(hydroxyamino)-5-oxopentyl)amino)phenyl}imidazo[2,1-b]thiazole-5-carboxamide], for which the inhibition at 1 µM in experiment [1] came out at 19.4%. This molecule also displayed an IC50 on rhIDO1 of 340 ± 90 nM.

On to `Cc1ccc(-c2csc3ncc(C(=O)Nc4ccc(NCCCCC(=O)NO)cc4)n23)cc1` [Compound 10i, N-{4-[(5-(hydroxyamino)-5-oxopentyl)amino]phenyl}-3-(p-tolyl)imidazo[2,1-b]thiazole-5-carboxamide], for which the inhibition at 1 µM in experiment [1] worked out at 35.5%. This molecule showed an IC50 against rhIDO1 of 590 ± 110 nM.

As for `Cc1ccc(-c2csc3ncc(C(=O)Nc4ccc(NCCCC(=O)NO)cc4)n23)cc1` [Compound 10h, N-{4-[(4-(hydroxyamino)-4-oxobutyl)amino]phenyl}-3-(p-tolyl)imidazo[2,1-b]thiazole-5-carboxamide], the inhibition at 1 µM in experiment [1] was 33.7%. At rhIDO1, this molecule had an IC50 of 1780 ± 470 nM.

Turning to `Cc1ccc(-c2csc3ncc(C(=O)NCc4ccc(C(=O)NO)cc4)n23)cc1` [Compound 7b, N-[4-(hydroxycarbamoyl)benzyl]-3-(p-tolyl)imidazo[2,1-b]thiazole-5-carboxamide], the inhibition at 1 µM in experiment [1] is 48%. The same molecule returned an IC50 against rhIDO1 of 960 ± 130 nM.

With `O=C(CCCCCNc1ccc(NC(=O)c2cnc3scc(-c4ccc(Br)cc4)n23)cc1)NO` [Compound 10d], the IC50 in the experiment on HCT-116 cells is 24400 ± 4780 nM; with MCF-7 cells, 52900 ± 6950 nM; in the experiment with SW480 cells it was greater than 80000 nM; with MDA-MB-231 cells it was greater than 80000 nM; at rhIDO1, 120 ± 10 nM. In addition, the inhibition at 1 µM in experiment [1] is 46.2%.

As to `O=C(CCNc1ccc(NC(=O)c2cnc3scc(-c4ccc(Br)cc4)n23)cc1)NO` [Compound 10a, 3-(4-Bromophenyl)-N-{4-[(3-(hydroxyamino)-3-oxopropyl)amino]phenyl}imidazo[2,1-b]thiazole-5-carboxamide], the inhibition at 1 µM in experiment [1] was found to be 22.4%. At rhIDO1, this molecule had an IC50 of 1870 ± 60 nM.

For `Cc1ccc(-c2csc3ncc(C(=O)Nc4ccc(NCC(=O)NO)cc4)n23)cc1` [Compound 10f, N-{4-[(2-(hydroxyamino)-2-oxoethyl)amino]phenyl}-3-(p-tolyl)imidazo[2,1-b]thiazole-5-carboxamide], in experiment [1], the inhibition at 1 µM stood at 28.8%. This molecule showed an IC50 at rhIDO1 of 6160 ± 830 nM.

The record behind these values is paper PMC12195740, “Discovery of Novel Imidazothiazole-Based Hydroxamic Acid Derivatives as Potent Indoleamine 2,3-Dioxygenase 1 and Histone Deacetylase 6 Dual Inhibitors” (Molecules, 2025).
